The source of these data is patent publication US9453014B2, “Cyclic amide derivatives as inhibitors of 11-β-hydroxysteroid dehydrogenase and uses thereof” (CONNEXIOS LIFE SCIENCES PVT. LTD., priority 2011, dated 2016).

Read-outs that look alike come from different tables or passages of the source.

The assay concerns the target T1, human full length HSD11 β 1 (Homo sapiens, UniProt P28845).
T1 construct: transient expression of human full length HSD11 β 1 expression vector; host or cells: CHO cells (transient transfection)
As to the kind of experiment: In Vitro HSD11β1 Inhibition Assay. The class given is cell-based. On the procedure:
In Vitro HSD11β1 Inhibition Assay:
CHO cells were maintained in Dulbecco's modified Eagle's medium/nutrient mixture F-12 containing 5% fetal bovine serum (v/v) and 2 mM glutamine. Cells were cultured at 37° C. with 5% CO2. For transient expression of human full length HSD11 β 1 expression vector (OriGene Technologies), cells were seeded at a density of 2×10^5 cells/well in a 6-well plate. Transfection was done using Turbofectin8 reagent (OriGene Technologies), according to the protocol provided with the reagent. After 24 hours post-transfection, cells were trypsinized and pooled together before they were re-seeding to 96-well plate at a density of 40000 cells/well. 24 hours after re-seeding, cells were incubated with 200 nM cortisone+500 uM NADPH (or along with small molecule inhibitors) overnight. The enzymatic activity or inhibition of enzyme activity was measured by estimating the conversion of cortisone to cortisol by LC/MS-MS method. The IC50 in nM was calculated from an 8 point log scale of concentration versus inhibition.

[1] abbreviates: CHO cells transiently expressing human HSD11β1, 200 nM cortisone+500 uM NADPH overnight, cortisone to cortisol by LC/MS-MS, read-out: 11βHSD1 (IC50).

T1 sequence (P28845 whole entry): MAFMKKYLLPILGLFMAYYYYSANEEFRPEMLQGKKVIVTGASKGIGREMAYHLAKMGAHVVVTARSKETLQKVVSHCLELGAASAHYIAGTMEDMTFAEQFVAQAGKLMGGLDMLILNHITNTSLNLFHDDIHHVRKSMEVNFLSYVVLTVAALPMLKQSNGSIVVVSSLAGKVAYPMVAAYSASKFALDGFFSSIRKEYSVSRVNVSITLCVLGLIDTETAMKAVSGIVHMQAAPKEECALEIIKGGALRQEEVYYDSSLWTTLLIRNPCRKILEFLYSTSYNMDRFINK

Regarding `O=C(O)C1CCN(C(=O)CC(c2ccccc2)c2c[nH]c3cccc(F)c23)C2CCCCC12` (single isomer, unassigned) [Example 162, 1-[3-(4-fluoro-1H-indol-3-yl)-3-phenylpropanoyl]decahydroquinoline-4-carboxylic acid], under setting [1], the IC50 (commonly the concentration needed to halve the response being measured) is over 250 nM. For `CC(C)C(CC(=O)N1CCC(C(=O)O)C2CCCCC21)c1c[nH]c2cc(F)ccc12` (single isomer, unassigned) [Example 177, 1-[3-(6-fluoro-1H-indol-3-yl)-4-methylpentanoyl]decahydroquinoline-4-carboxylic acid], the IC50 under setting [1] lay within 150 to 200 nM.

Turning to `CC(C)C(CC(=O)N1CCC(C(=O)O)C2CCCCC21)c1c[nH]c2cc(F)ccc12` (single isomer, unassigned) [Example 178, 1-[3-(6-fluoro-1H-indol-3-yl)-4-methylpentanoyl]decahydroquinoline-4-carboxylic acid], the IC50 under setting [1] was over 250 nM.

For the compound `O=C(O)C1CCN(C(=O)CC(c2ccccc2)n2nnc3ccccc32)C2CCCCC12` (single isomer, unassigned) [Example 181, 1-[3-(1H-benzotriazol-1-yl)-3-phenylpropanoyl]decahydroquinoline-4-carboxylic acid], under setting [1], the IC50 is over 250 nM. Still for that read-out and setting: for `O=C(O)C1CCN(C(=O)CC(c2ccccc2)n2nnc3ccccc32)C2CCCCC12` (single isomer, unassigned) [Example 182, 1-[3-(1H-benzotriazol-1-yl)-3-phenylpropanoyl]decahydroquinoline-4-carboxylic acid] the value was over 250 nM; for `CC(CC(=O)N1CCCC2CCCCC21)c1c[nH]c2ccccc12` (stereo not drawn) [Compound 1, 3-(1H-indol-3-yl)-1-(octahydroquinolin-1(2H)-yl)butan-1-one], under 100 nM; for `Cn1cc(C(C)(C)C(=O)N2CCCC3CCCCC32)c2ccccc21` (stereo not drawn) [Compound 2, 2-methyl-2-(1-methyl-1H-indol-3-yl)-1-(octahydroquinolin-1(2H)-yl)propan-1-one], over 250 nM. Same read-out and setting: the result for `Cc1ccc2[nH]cc(CCC(=O)N3CCCC4CCCCC43)c2c1` (stereo not drawn) [Compound 3, 3-(5-methyl-1H-indol-3-yl)-1-(octahydroquinolin-1(2H)-yl)propan-1-one] reads 150 to 200 nM; that for `O=C(CCc1c[nH]c2ccc(F)cc12)N1CCCC2CCCCC21` (stereo not drawn) [Compound 4, 3-(5-fluoro-1H-indol-3-yl)-1-(octahydroquinolin-1(2H)-yl)propan-1-one], 100 to 150 nM; that for `O=C(CSc1c[nH]c2ccccc12)N1CCCC2CCCCC21` (stereo not drawn) [Compound 5, 2-(1H-indol-3-ylsulfanyl)-1-(octahydroquinolin-1(2H)-yl)ethanone], under 100 nM.

Regarding `O=C(CCc1c[nH]c2ccc(Cl)cc12)N1CCCC2CCCCC21` (stereo not drawn) [Compound 6, 3-(5-chloro-1H-indol-3-yl)-1-(octahydroquinolin-1(2H)-yl)propan-1-one], the IC50 under setting [1] fell in the range of 200 to 250 nM. Take `COc1ccc2[nH]cc(CCC(=O)N3CCCC4CCCCC43)c2c1` (stereo not drawn) [Compound 7, 3-(5-methoxy-1 fi-indol-3-yl)-1-(octahydroquinolin-1 (2H)-yl)propan-1-one]: under setting [1], the IC50 is over 250 nM. `O=C(/C=C/c1c[nH]c2ccccc12)N1CCCC2CCCCC21` (stereo not drawn) [Compound 8, (2E)-3-(1H-indol-3-yl)-1-(octahydroquinolin-1(2H)-yl)prop-2-en-1-one]: the IC50 under setting [1] lay in the range of 100 to 150 nM. With `O=C(Cc1c[nH]c2ccccc12)N1CCCC2CCCCC21` (stereo not drawn) [Compound 9, 2-(1H-indol-3-yl)-1-(octahydroquinolin-1(2H)-yl)ethanone], under setting [1], the IC50 lay within 200 to 250 nM. The same measure, in the same setting: for `O=C(Cc1c[nH]c2ccc(F)cc12)N1CCCC2CCCCC21` (stereo not drawn) [Compound 10, 2-(5-fluoro-1H-indol-3-yl)-1-(octahydroquinolin-1(2H)-yl)ethanone] the value was 100 to 150 nM; for `O=C(CCCc1c[nH]c2ccccc12)N1CCCC2CCCCC21` (stereo not drawn) [Compound 11, 4-(1H-indol-3-yl)-1-(octahydroquinolin-1(2H)-yl)butan-1-one], 100 to 150 nM; for `CC1CCN(C(=O)CCc2c[nH]c3ccccc23)C2CCCCC12` (stereo not drawn) [Compound 12, 3-(1H-indol-3-yl)-1-(4-methyloctahydroquinolin-1(2H)-yl)propan-1-one], over 250 nM. Consider `Cn1cc(CCC(=O)N2CCCC3CCCCC32)c2ccccc21` (stereo not drawn) [Compound 13, 3-(1-methyl-1H-indol-3-yl)-1-(octahydroquinolin-1(2H)-yl)propan-1-one], for which the IC50 under setting [1] was under 100 nM. Regarding `O=C(CCc1cc2ccccc2[nH]1)N1CCCC2CCCCC21` (stereo not drawn) [Compound 14, 3-(1H-indol-2-yl)-1-(octahydroquinolin-1(2H)-yl)propan-1-one], the IC50 under setting [1] was over 250 nM. Same read-out and setting: for `O=C(CCc1c[nH]c2ccc(O)cc12)N1CCCC2CCCCC21` (stereo not drawn) [Compound 15, 3-(5-hydroxy-1H-indol-3-yl)-1-(octahydroquinolin-1(2H)-yl)propan-1-one] the value was 100 to 150 nM; for `Cc1[nH]c2ccc(F)cc2c1CCC(=O)N1CCCC2CCCCC21` (stereo not drawn) [Compound 16, 3-(5-fluoro-2-methyl-1H-indol-3-yl)-1-(octahydroquinolin-1(2H)-yl)propan-1-one], 150 to 200 nM; for `Cc1[nH]c2ccccc2c1CCC(=O)N1CCCC2CCCCC21` (stereo not drawn) [Compound 17, 3-(2-methyl-1H-indol-3-yl)-1-(octahydroquinolin-1(2H)-yl)propan-1-one], under 100 nM. As for `O=C(CCn1ccc2ccccc21)N1CCCC2CCCCC21` (stereo not drawn) [Compound 18, 3-(1H-indol-1-yl)-1-(octahydroquinolin-1(2H)-yl)propan-1-one], under setting [1], the IC50 was over 250 nM. With `O=C(CC(=O)N1CCCC2CCCCC21)c1c[nH]c2ccc(Cl)cc12` (stereo not drawn) [Compound 19, 1-(5-chloro-1H-indol-3-yl)-3-(octahydroquinolin-1(2H)-yl)propane-1,3-dione], the IC50 under setting [1] was over 250 nM. Turning to `Cc1cccc2[nH]cc(CCC(=O)N3CCCC4CCCCC43)c12` (stereo not drawn) [Compound 20, 3-(4-methyl-1H-indol-3-yl)-1-(octahydroquinolin-1(2H)-yl)propan-1-one], under setting [1], the IC50 is under 100 nM. `O=C(CCc1c[nH]c2ccccc12)N1CCC2CCCCC2C1` (stereo not drawn) [Compound 21, 3-(1H-indol-3-yl)-1-(octahydroisoquinolin-2(1H)-yl)propan-1-one]: the IC50 under setting [1] is over 250 nM. In the case of `CC(CC(=O)N1CCOC2CCCCC21)c1c[nH]c2ncccc12` (stereo not drawn) [Compound 22, 1-(octahydro-4H-1,4-benzoxazin-4-yl)-3-(1H-pyrrolo[2,3-b]pyridin-3-yl)butan-1-one], the IC50 under setting [1] was over 250 nM.

In the case of `CC(C)(C)NC(=O)C1CC2CCCCC2CN1C(=O)CCc1c[nH]c2ccccc12` (stereo not drawn) [Compound 23, N-tert-butyl-2-[3-(1H-indol-3-yl)propanoyl]decahydroisoquinoline-3-carboxamide], the IC50 under setting [1] was over 250 nM. Same read-out and setting: for `Cn1cc(CCC(=O)N2CCCC3CCCCC32)c2cc(O)ccc21` (stereo not drawn) [Compound 24, 3-(5-hydroxy-1-methyl-1H-indol-3-yl)-1-(octahydroquinolin-1(2H)-yl)propan-1-one] the value was over 250 nM; for `CC(Oc1c[nH]c2ccccc12)C(=O)N1CCCC2CCCCC21` (stereo not drawn) [Compound 25, 2-(1H-indol-3-yloxy)-1-(octahydroquinolin-1(2H)-yl)propan-1-one], over 250 nM. As for `O=C1CCN(C(=O)CCc2c[nH]c3ccccc23)C2CCCCC12` (stereo not drawn) [Compound 26, 1-[3-(1H-indol-3-yl)propanoyl]octahydroquinolin-4(1H)-one], under setting [1], the IC50 is over 250 nM.

On to `Cc1cccc2c1c(CCC(=O)N1CCCC3CCCCC31)cn2C` (stereo not drawn) [Compound 27, 3-(1,4-dimethyl-1H-indol-3-yl)-1-(octahydroquinolin-1(2H)-yl)propan-1-one], for which the IC50 under setting [1] is under 100 nM. The same measure, in the same setting: for `Cc1cccc2c1c(CCC(=O)N1CCCC3CCCCC31)cn2C1CC1` (stereo not drawn) [Compound 28, 3-(1-cyclopropyl-4-methyl-1H-indol-3-yl)-1-(octahydroquinolin-1(2H) -yl)propan-1-one] the value was 100 to 150 nM. The compound `Cc1cccc2[nH]cc(C(=O)CC(=O)N3CCCC4CCCCC43)c12` (stereo not drawn) [Compound 30, 1-(4-methyl-1H-indol-3-yl)-3-(octahydroquinolin-1(2H)-yl)propane-1,3-dione] returned an IC50 (11βHSD1 (IC50)) of over 250 nM.

Take `N#C/C(=C\c1c[nH]c2ccccc12)C(=O)N1CCCC2CCCCC21` (stereo not drawn) [Compound 31, (2E)-3-(1H-indol-3-yl)-2-(octahydroquinolin-1(2H)-ylcarbonyl)prop-2-enenitrile]: the IC50 under setting [1] is over 250 nM.

On to `Cc1cccc2[nH]cc(CCC(=O)N3CCC(=O)C4CCCCC43)c12` (stereo not drawn) [Compound 32, 1-[3-(4-methyl-1H-indol-3-yl)propanoyl]octahydroquinolin-4(1H)-one], for which, under setting [1], the IC50 is over 250 nM. On the same count and under the same terms, the result for `CCn1cc(CCC(=O)N2CCCC3CCCCC32)c2c(C)cccc21` (stereo not drawn) [Compound 33, 3-(1-ethyl-4-methyl-1H-indol-3-yl)-1-(octahydroquinolin-1(2H)-yl)propan-1-one] reads over 250 nM.

As to `CC1(O)CCN(C(=O)CCc2c[nH]c3ccccc23)C2CCCCC21` (stereo not drawn) [Compound 34, 1-(4-hydroxy-4-methyloctahydroquinolin-1(2H)-yl)-3-(1H-indol-3-yl)propan-1-one], the IC50 under setting [1] was over 250 nM. As to `Cc1cccc2[nH]cc(CCC(=O)N3C(C)CCC4CCCCC43)c12` (stereo not drawn) [Compound 35, 3-(4-methyl-1H-indol-3-yl)-1-(2-methyloctahydroquinolin-1(2H)-yl)propan-1-one], the half-inhibitory concentration (IC50) under setting [1] was under 100 nM.
